Source: patent US20180320177A1, “COMPOSITIONS AND METHODS FOR THE TREATMENT OF LIVER FIBROSIS” (UNIVERSITY OF CONNECTICUT, priority 2015, published 2018)

How the values were obtained:
[1] = system: CCl4-induced inflammation; experiment: CCl4-induced inflammation in mouse liver; format: in vivo; conditions: CCl4-treated mice (FIG. 4C, 4D)
Procedure: Animal Care: All animal care and experimental procedures were approved by the Institutional Animal Care and Use Committee at the University of Connecticut. Shp^−/− mice were described previously. Hmgb2^−/− mice were obtained from Dr. Stella Tsirka at Stony Brook University. C57BL/6J mice were purchased from Jackson Laboratory. All mice were maintained on a 12-h light/dark cycle with free access to food and water unless otherwise indicated. For CCl4 treatment, CCl4 (Sigma) was dissolved in corn oil and administered to mice at a dose of 850 μl/kg BW by intraperitoneal injection (IP) twice a week for 6 or 10 weeks with or without ICM. Age-matched control mice were treated with a corn oil vehicle. For CCl4+ICM treatment, mice were treated with CCl4 for 2 weeks and then ICM (Department of Pharmaceutical Sciences at UConn) was dissolved in PEG (Sigma) and treated with mice (10 mg/kg) every day for 4 or 8 weeks in combination with CCl4. To induce overexpression of HMGB2 in liver, AAV8-Hmgb2 or a control AAV8-GFP was given to mice by tail vein injection at a dose of 5×10^10 GC. To knockdown HMGB2 in mouse livers, AAV-shHmgb2 or a control AAV-shGFP was delivered to mice at a dose of 2×10^10 GC by tail vein injection. One week later, mice injected with AAVs were treated with CCl4 or CCl4 +ICM as described above and sacrificed. […]

TIC cells = experiment: TIC cell migration and invasion assays; format: cell-based; conditions: TIC cells (FIG. 7C, 7D)
Procedure: Cell Lines The LX-2 human stellate cell line was maintained in Dulbecco's Modified Eagle's Medium (DMEM) supplemented with 2% fetal bovine serum (FBS), 100 IU/ml penicillin, and 100 μg/ml streptomycin. Human hepatocellular carcinoma (HCC) MHCC97H cells were maintained in DMEM supplemented with 10% FBS, 100 IU/ml penicillin, and 100 μg/ml streptomycin, 1 mM HEPES, 1 mM sodium pyruvate, 2 mM L-glutamine. Tumor-initiating (TIC) cells were obtained from Dr. Hidekazu Tsukamoto at University of Southern California and were maintained in 1:1 DMEM:F12 supplement with 100 U/ml penicillin and 100 μg/ml streptomycin, 2 mM glutamine, 20 ng/ml mouse EGF, 10 nM dexamethasone, 1× embryomax nucleotides. All the cells were maintained at 37° C. humidified atmosphere with 5% CO2. TIC cells were infected with Hmgb2 shRNA lentivirus for 48 hr, and treated with 500 ng/ml puromycin for 2 weeks. The stable cells were used for migration and invasion assay, as well as western blot.
Cell Migration and Invasion: Cell migration and invasion assays were performed as described in the art. Briefly, control TIC cells or TIC cells with a stable knockdown of HMGB2 were infected with AAV8-Null or AAV-8-HMGB2 for 48 hr. The cells were then serum starved for 24 hr and 5×10^4 cells were seeded on transwell inserts with 8 μm pore size (Culterx® 96 well cell migration assay, cat# 3465-095-K). Cells were allowed to migrate for 16 hr. Non-migrating cells were removed from the insert with a cotton swab. The migrated cells were fixed for 10 min (3.7% v/v formaldehyde in PBS), and stained with 0.1% crystal violet for 15 min. Cells were washed with PBS and pictures were taken with Microfire/Qcam CCD Olympus 1×81 microscope. Cells stained with crystal violet were counted and then lysed with 1% SDS for 30 min and the absorbance was measured at 570 nm. Cell invasion assays were performed similarly to migration assays, except that the cells were seeded on pre-coated inserts with BME solution (Cultrex® 96 well BME cell invasion Assay, cat# 3455-096-K). Invaded cells were fixed, stained and the absorbance was measured as in the migration assay.

Molecule | inflammatory response [1] | cell invasion (TIC cells) | cell migration (TIC cells)
CC1(C)Oc2cc(O)ccc2C2C1=CCn1c(=O)n(-c3ccccc3)c(=O)n12 (stereo not drawn) [ICM, inflachromene] | decrease inflammatory response | markedly blocks | markedly blocks
shHMGB2: small hairpin RNA against HMGB2 (SEQ ID NO: 8), delivered by AAV or lentivirus (CCGGGCTCAACATTAGCTTCAGTATCTCGAGATACTGAAGCTAATGTTGAGCTTTTTG) | decrease inflammatory response | decreased | decreased
